Source: patent US20230192648A1, “IMMUNOREGULATORY COMPOUNDS” (NIMML INSTITUTE, priority 2021, published 2023)
Entries after “also recorded” stand apart in the source; their conditions may differ.

Experiments:
[1] = test system: DSS model of acute inflammatory bowel disease; assay: DSS model of acute inflammatory bowel disease; format: in vivo, mouse; settings: oral, 10 mg/kg once daily, relative to vehicle; for proportion of CD4+ T cells in the colonic lamina propria: FIG. 3A; for F4/80hi macrophages (colon): FIG. 3C
Protocol: DSS model. Mice were given DSS in drinking water for seven days. At project initiation, mice were 8 weeks of age and began dosing 24 hours after being placed on DSS. Mice were weighed and scored daily for symptoms of disease (diarrhea, rectal bleeding, rectal inflammation, overall behavior). Treatments were prepared within a 0.5% methylcellulose (12-15 cP) solution. The dosage used was 10 mg/kg delivered once daily. Flow Cytometry. Colons were collected into RPMI/FBS buffer containing collagenase (300 U/mL) and DNase (50 U/mL) for digestion. Tissues were digested for 60 minutes under stirring at 37° C. Resultant cellular suspensions were filtered through 100 µm strainers, centrifuged (300 x g, 8 min), and washed in fresh RPMI. Following filtration of the resulting single cell suspensions, immune cells were purified by Percoll gradient of cell-containing 40% Percoll overlayed onto 70% Percoll solution. After centrifugation, interphase was collected and washed to obtain enriched colonic lamina propria cell fractions. Cells were labeled with mixtures of extracellular (CD45, CD3, CD4, CD8, CD25, F4/80, CD11b, MHCII) antibodies in a sequential live staining in 96-well plates. Data was acquired using a FACS Celesta flow cytometer with FACSDiva software.

influenza A (H1N1) = assay: Influenza A (H1N1) infection of mice, survival; format: in vivo, mouse; settings: 25 mg/kg orally daily, FIG. 4; for delay of first mortality: vehicle mortality beginning at day 6
Protocol: Wild type C57BL/6 mice were anesthetized by isoflurane inhalation. Mice were infected with influenza A (H1N1) intranasally at a challenge titer of 2 x 10^4 TCID50/mL. Mice were treated daily with NIM-1001-2, NIM-1001-8, or NIM-1001-9 at a dose of 25 mg/kg orally via gavage. Mice were monitored daily.

[2] = test system: bm12 model of systemic inflammation; assay: bm12 mouse model of systemic inflammation; format: in vivo
[3] = test system: MRL/lpr model of systemic lupus erythematosus; assay: MRL/lpr genetic mouse model of SLE; format: in vivo; settings: daily orogastric gavage from 12 weeks of age
Protocol: Mouse model. Female MRL/lpr mice were obtained at 8 weeks of age. Mice were followed for four weeks for the development of proteinuria. […] Treatment with NIM-1001-8, or vehicle control, were administered by orogastric gavage daily, beginning at 12 weeks of age, in a 0.5% methylcellulose suspension.
(§1) Immunological analysis. Urine was collected for assay for protein content to test for kidney function. Spleens were excised, crushed and filtered to provide a cellular suspension. Red blood cells were lysed. Cells were labeled with mixtures of extracellular (CD45, CD3, CD4, CD8, CD25) and intracellular (FOXP3, IL17) antibodies in a sequential live staining in 96-well plates in preparation for flow cytometry. Data was captured on a BD FACS Celesta and analyzed using FacsDiva.

[4] = test system: genetic model of Alzheimer's disease; assay: Genetic mouse model of Alzheimer's disease; format: in vivo; settings: oral 10 mg/kg for eight weeks, relative to vehicle
Protocol: Mouse model. Genetically modified mice that spontaneously develop cognitive impairment at 4 months of age and histological signs of disease at 6 months of age were randomized into the project at 24 weeks of age. Mice were orally treated with vehicle or NIM-1001-8 (10 mg/kg) for eight weeks. After eight weeks of treatment, mice were evaluated using a light-dark test to measure the time spent in the light relative to the dark. This is a measure of an anxiety response. Genetically modified mice were compared to age-matched wild-type mice (negative control).
Flow Cytometry. Brains were collected into RPMI/FBS buffer containing collagenase (300 U/mL) and DNase (50 U/mL) for digestion. Tissues were digested for 30 minutes under stirring at 37° C. Resultant cellular suspensions were filtered through 100 µm strainers, centrifuged (300 x g, 8 min), and washed in fresh RPMI. Following filtration of the resulting single cell suspensions, immune cells were purified by Percoll gradient of cell-containing 40% Percoll overlayed onto 70% Percoll solution. After centrifugation, interphase was collected and washed to obtain enriched immune cell fractions. Cells were labeled with mixtures of extracellular (CD45, CD3, CD4, CD8, CD11b, Gr1) and intracellular (IL17) antibodies in a sequential live staining in 96-well plates. Data was acquired using a FACS Celesta flow cytometer with FACSDiva software.

[5] = test system: IMQ-induced model of psoriasis; assay: Imiquimod (IMQ) induced model of psoriasis; format: in vivo, mouse; settings: oral 20 mg/kg daily
Protocol: IMQ-induced model. C57BL/6 mice were anesthetized, shaved, and briefly exposed to depilatory cream on the surface of the back. Mice were given three days to recover from the procedure prior to entry to the study. After 3 days, mice were challenged with approximately 60 mg of […] imiquimod cream daily by spreading cream over the shaved area. Oral treatment with vehicle or NIM-1001-8 (20 mg/kg) occurred daily.
Analysis. Spleens were excised and crushed by microscope slides. Red blood cells were hypotonically lysed from the resultant suspension. Samples were filtered, washed and centrifuged prior to staining. Cells were labeled with mixtures of extracellular (CD45, CD3, CD4, CD8, CD25, F4/80, CD11b, MHCII) and intracellular (TNF, IL17) antibodies in a sequential live staining in 96-well plates in preparation for flow cytometry. Data was captured on a BD FACS Celesta and analyzed using FacsDiva.

[6] = test system: NOD model of Sjogren's syndrome; assay: NOD mouse model of Sjogren's syndrome; format: in vivo; settings: relative to vehicle, FIG. 10
Protocol: NOD model. Ten-week-old female NOD mice were treated with vehicle or NIM-1001-8 (2 or 50 mg/kg) daily by oral gavage for four weeks. After conclusion of the treatment period, submandibular glands were excised and fixed in formalin. Glands were processed and H&E-stained slides were prepared. Slides were scored by blinded reviewer, on a 0 to 4 composite scale encompassing level of inflammation and disease.

[7] = test system: MPTP induced model of Parkinson's disease; assay: MPTP induced mouse model of Parkinson's disease; format: in vivo; settings: oral 25 mg/kg once daily
Protocol: Mouse model. Mice were administered intraperitoneal injections of 1-methyl-4-phenyl-1,2,3,6-tetrahydropyridine (MPTP) and probenecid three times weekly for 4 weeks. In the second week of injections, oral treatment with vehicle or NIM-1001-8 (25 mg/kg) was initiated once daily. After four weeks of injections, motor control was assessed by counting the number of step errors during a challenging beam test. Mice challenged with MPTP were compared to mice challenged with a sham injection (negative control).
as §1, with “Flow Cytometry.” for “Immunological analysis. Urine was collected for assay for protein content to test for kidney function.”, “(IL21,” for “(FOXP3,”

[8] = test system: experimental autoimmune encephalomyelitis; assay: Mouse model of experimental autoimmune encephalomyelitis (adoptive transfer of MOG-primed splenocytes); format: in vivo; settings: oral 20 mg/kg from 7 days post-transfer
Protocol: Mouse model. C57BL6 mice were challenged at 10- to 16-weeks of age with MOG immunization with complete Freund’s adjuvant. MOG emulsion was administered to the cervical region and the hind flank at 100 µL per site to each mouse. After 10 days, spleens were harvested. Isolated splenocytes were cultured in the presence of MOG, IL-12 and anti-interferon gamma for 3 days. Splenocytes were then washed and injected into recipient mice at approximately 20 million cells per mouse. Oral treatment with NIM-1001-8 (20 mg/kg) or vehicle was initiated at 7 days post-transfer. Mice were be scored (0-3) daily for disease activity (coordination, gait, paralysis).
Flow Cytometry. Spinal cords were excised and digested with papain and DNase. Immune cells were purified by Percoll gradient. Cells were labeled with mixtures of extracellular (CD45, CD3, CD4, CD8, CD25) and intracellular (IL17) antibodies in a sequential live staining in 96-well plates in preparation for flow cytometry. Data was captured on a BD FACS Celesta and analyzed using FacsDiva.
Histology. Sections of the spinal cord from the lumbar region were extracted and fixed in formalin. Samples were embedded in paraffin and sectioned. By immunohistochemistry, samples were stained for the presence of glial fibrillary acidic protein (GFAP). Slides were assessed microscopically and scored (0-3) for the intensity and frequency of GFAP positive cells. GFAP is a common protein marker for astrocytes in the central nervous system

[9] = oral gavage daily, 20 mg/kg/day, relative to vehicle; FIG. 2A
[10] = oral gavage daily, 20 mg/kg/day, relative to vehicle; FIG. 2C
[11] = oral gavage daily, 20 mg/kg/day, relative to vehicle, FIG. 2C

CCc1noc(/C=C/c2cncc(Oc3cc(-c4nc(C)no4)cc(Cl)n3)c2C)n1 [NIM-1001-2]
proportion of CD4+ T cells in the colonic lamina propria [1]: reduced | survival at day 10 (fraction of group) (influenza A (H1N1); vehicle 25% survival by day 10): two-thirds | delay of first mortality (influenza A (H1N1)): one day | spleen size in proportion to overall body weight [2, 9]: significantly reduced | proportion of CD25+ FOXP3+ regulatory T cells in the spleen [2, 10]: significantly increased

CCOC(=O)/C=C/c1cncc(Oc2cc(C(=O)NC)cc(Cl)n2)c1C [NIM-1001-4]
proportion of CD25+ FOXP3+ regulatory T cells in the spleen [2, 11]: significantly increased; also recorded: largest magnitude of increase | spleen size in proportion to overall body weight [2, 9]: reduced the normalized spleen size at a lesser degree

CCOC(=O)/C=C/c1cncc(Oc2cc(C(=O)OC)cc(Cl)n2)c1C [NIM-1001-8, methyl (E)-2-chloro-6-((5-(3-ethoxy-3-oxoprop-1-en-1-yl)-4-methylpyridin-3-yl)oxy)isonicotinate]
proportion of CD4+ T cells in the colonic lamina propria [1]: reduced | F4/80hi macrophages (colon) [1]: significant reductions | urine protein levels, reduction ([3]; relative to vehicle, FIG. 6A): more than two-fold | splenic CD25+ FOXP3+ regulatory T cells ([3]; P < 0.05, FIG. 6B): significant increase | splenic CD4+ IL17+ cells ([3]; P < 0.05, FIG. 6C): significant decrease | time spent in the light (light-dark test) ([4]; FIG. 7A, 10 mg/kg): significantly increased; also recorded: restored the time to equal that of the negative control group | proportion of neutrophils in the brain ([4]; FIG. 7B): decreased | proportion of CD4+ IL17+ T cells in the brain ([4]; FIG. 7C): decreased | proportion of TNF+ CD4+ T cells in the spleen ([5]; relative to vehicle, FIG. 9A): significantly reduced | proportion of IL17+ CD4+ T cells in the spleen ([5]; relative to vehicle, FIG. 9B): significantly reduced | proportion of F4/80hi inflammatory macrophages ([5]; FIG. 9C): decreased | histological severity of disease in the submandibular glands (score 0 to 4) ([6]; 2 mg/kg daily by oral gavage for four weeks): significantly reduced | histological severity of disease in the submandibular glands (score 0 to 4) ([6]; 50 mg/kg daily by oral gavage for four weeks): significantly reduced | survival at day 10 (influenza A (H1N1); vehicle 25% survival by day 10): 83% | delay of first mortality (influenza A (H1N1)): two days | proportion of CD25+ FOXP3+ regulatory T cells in the spleen [2, 11]: significantly increased; also recorded: largest magnitude of increase | spleen size in proportion to overall body weight [2, 9]: significantly reduced | number of step errors during a challenging beam test ([7]; relative to vehicle, FIG. 8A): significantly reduced; also recorded: near complete abrogation of MPTP effects | CD4+ IL21+ T cells within the spleen ([7]; P < 0.05, FIG. 8B): significant reductions | CD4+ IL17+ T cells within the spleen ([7]; P < 0.05, FIG. 8C): significant reductions | overall disease severity (score 0-3) ([8]; FIG. 5A): amelioration | proportion of CD4+ IL17+ T cells in the spinal cord ([8]; FIG. 5B): decreased | GFAP positive staining in the spinal cord ([8]; FIG. 5C): decreased

CCNC(=O)/C=C/c1cncc(Oc2nccc(C(=O)NC)n2)c1C [NIM-1001-9]
survival at day 10 (fraction of group) (influenza A (H1N1); vehicle 25% survival by day 10): two-thirds | delay of first mortality (influenza A (H1N1)): one day | spleen size in proportion to overall body weight [2, 9]: significantly reduced | proportion of CD25+ FOXP3+ regulatory T cells in the spleen [2, 10]: significantly increased

CCOC(=O)/C=C/c1cncc(Nc2cc(C(=O)OC)cc(Cl)n2)c1 [NIM-1001-10]
spleen size in proportion to overall body weight [2, 9]: reduced the normalized spleen size at a lesser degree

CCc1noc(/C=C/c2cncc(Nc3cc(-c4nc(C)no4)cc(Cl)n3)c2)n1 [NIM-1001-11]
proportion of CD4+ T cells in the colonic lamina propria [1]: reduced | F4/80hi macrophages (colon) [1]: significant reductions

CCNC(=O)/C=C/c1cncc(Nc2nccc(C(=O)NC)n2)c1 [NIM-1001-12]
proportion of CD4+ T cells in the colonic lamina propria [1]: reduced | F4/80hi macrophages (colon) [1]: significant reductions | spleen size in proportion to overall body weight [2, 9]: significantly reduced | proportion of CD25+ FOXP3+ regulatory T cells in the spleen [2, 10]: significantly increased
